Assay [1] deals with T1, Inhibitor of nuclear factor kappa-B kinase subunit beta (Homo sapiens) (UniProt O14920).
T1 sequence (whole entry): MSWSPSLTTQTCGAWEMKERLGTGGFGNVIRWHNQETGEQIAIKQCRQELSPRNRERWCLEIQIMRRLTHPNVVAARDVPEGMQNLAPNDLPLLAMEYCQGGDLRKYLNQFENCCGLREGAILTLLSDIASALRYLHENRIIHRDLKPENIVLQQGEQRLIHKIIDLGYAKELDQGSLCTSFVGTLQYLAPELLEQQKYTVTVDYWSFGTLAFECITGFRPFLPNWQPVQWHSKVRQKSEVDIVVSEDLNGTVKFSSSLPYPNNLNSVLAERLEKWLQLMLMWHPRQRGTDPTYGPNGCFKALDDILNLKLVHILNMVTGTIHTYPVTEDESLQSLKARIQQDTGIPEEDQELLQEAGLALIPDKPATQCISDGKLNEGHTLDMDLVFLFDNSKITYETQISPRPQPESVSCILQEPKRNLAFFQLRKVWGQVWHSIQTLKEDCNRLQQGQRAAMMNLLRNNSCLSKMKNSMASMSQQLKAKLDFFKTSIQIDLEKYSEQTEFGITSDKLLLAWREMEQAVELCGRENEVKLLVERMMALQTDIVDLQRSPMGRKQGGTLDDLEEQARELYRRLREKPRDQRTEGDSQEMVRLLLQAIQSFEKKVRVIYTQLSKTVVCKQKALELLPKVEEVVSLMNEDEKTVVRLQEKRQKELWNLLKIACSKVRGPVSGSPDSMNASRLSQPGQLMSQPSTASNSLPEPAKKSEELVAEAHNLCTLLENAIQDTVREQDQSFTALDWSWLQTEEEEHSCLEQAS
Briefly: Inhibition of human IKKb at 500 nM by HotSpot assay relative to control.

For assay [2], the target named is Glycogen synthase kinase-3 alpha (Homo sapiens) (UniProt P49840). Briefly: Inhibition of human GSK3a at 18.6 nM by HotSpot assay relative to control.
Glycogen synthase kinase-3 alpha (Homo sapiens), sequence (P49840 2-483 limits assumed): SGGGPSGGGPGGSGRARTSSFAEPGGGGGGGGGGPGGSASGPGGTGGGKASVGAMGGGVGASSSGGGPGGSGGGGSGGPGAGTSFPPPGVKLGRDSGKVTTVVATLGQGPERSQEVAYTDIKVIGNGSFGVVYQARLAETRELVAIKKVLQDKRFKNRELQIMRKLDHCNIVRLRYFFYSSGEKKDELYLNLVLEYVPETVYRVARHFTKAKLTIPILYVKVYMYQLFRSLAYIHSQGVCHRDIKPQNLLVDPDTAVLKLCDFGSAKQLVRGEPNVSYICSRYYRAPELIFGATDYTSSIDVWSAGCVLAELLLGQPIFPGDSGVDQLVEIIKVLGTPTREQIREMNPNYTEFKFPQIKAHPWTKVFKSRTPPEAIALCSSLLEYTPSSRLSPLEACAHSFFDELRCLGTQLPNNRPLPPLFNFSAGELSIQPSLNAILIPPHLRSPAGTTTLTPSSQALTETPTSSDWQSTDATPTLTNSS
Assay [3] has as its target Protein-tyrosine kinase 2-beta (Homo sapiens) (UniProt Q14289). As to the kind of experiment: Inhibition of human PYK2 at 18.6 nM by HotSpot assay relative to control.
The target in assay [4] is T2, Protein kinase C zeta type (Homo sapiens) (UniProt Q05513).
T2 sequence (whole entry): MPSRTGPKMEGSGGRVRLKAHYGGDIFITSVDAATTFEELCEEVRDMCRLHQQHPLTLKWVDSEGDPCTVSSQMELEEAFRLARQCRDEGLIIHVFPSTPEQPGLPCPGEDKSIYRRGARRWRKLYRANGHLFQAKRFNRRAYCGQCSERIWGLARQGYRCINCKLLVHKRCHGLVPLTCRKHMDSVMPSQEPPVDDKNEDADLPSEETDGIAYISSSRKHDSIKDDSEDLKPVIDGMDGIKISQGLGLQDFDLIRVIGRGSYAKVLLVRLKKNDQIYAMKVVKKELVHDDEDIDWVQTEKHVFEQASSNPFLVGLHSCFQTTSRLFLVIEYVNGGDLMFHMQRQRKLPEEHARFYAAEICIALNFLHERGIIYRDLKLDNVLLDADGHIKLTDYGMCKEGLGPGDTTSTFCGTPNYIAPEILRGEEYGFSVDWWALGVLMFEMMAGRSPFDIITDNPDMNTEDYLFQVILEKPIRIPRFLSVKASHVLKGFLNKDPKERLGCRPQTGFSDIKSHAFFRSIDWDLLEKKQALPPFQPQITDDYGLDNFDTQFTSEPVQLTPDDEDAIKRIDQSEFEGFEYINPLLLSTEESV
Briefly: Inhibition of human PKCzeta at 18.6 nM by HotSpot assay relative to control.

For assay [5], the target named is Protein kinase C eta type (Homo sapiens) (UniProt P24723). Briefly: Inhibition of human PKCeta at 18.6 nM by HotSpot assay relative to control.
Protein kinase C eta type (Homo sapiens), sequence (P24723 whole entry): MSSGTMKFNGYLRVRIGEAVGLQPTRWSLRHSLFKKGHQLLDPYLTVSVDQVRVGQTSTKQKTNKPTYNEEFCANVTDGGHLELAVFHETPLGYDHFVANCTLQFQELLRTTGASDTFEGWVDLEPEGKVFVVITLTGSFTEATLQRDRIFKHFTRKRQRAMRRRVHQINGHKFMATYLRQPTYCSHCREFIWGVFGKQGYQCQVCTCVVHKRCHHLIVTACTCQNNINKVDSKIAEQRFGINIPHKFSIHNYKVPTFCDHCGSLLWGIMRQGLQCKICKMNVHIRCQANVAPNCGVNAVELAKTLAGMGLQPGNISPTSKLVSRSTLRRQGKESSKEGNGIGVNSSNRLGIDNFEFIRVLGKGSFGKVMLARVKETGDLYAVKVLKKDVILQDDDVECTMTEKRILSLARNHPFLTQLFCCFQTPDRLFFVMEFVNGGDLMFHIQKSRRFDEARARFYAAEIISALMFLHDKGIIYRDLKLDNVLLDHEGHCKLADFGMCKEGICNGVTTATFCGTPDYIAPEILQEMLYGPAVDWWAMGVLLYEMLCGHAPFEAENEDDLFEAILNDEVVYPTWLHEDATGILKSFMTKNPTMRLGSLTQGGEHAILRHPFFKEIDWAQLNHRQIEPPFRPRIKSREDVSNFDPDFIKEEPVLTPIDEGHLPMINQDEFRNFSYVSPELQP
In assay [6] the target is Protein-tyrosine kinase 6 (Homo sapiens) (UniProt Q13882). As to the kind of experiment: Inhibition of human BRK at 1.82 nM by HotSpot assay relative to control.
Protein-tyrosine kinase 6 (Homo sapiens), sequence (Q13882 whole entry, looked up): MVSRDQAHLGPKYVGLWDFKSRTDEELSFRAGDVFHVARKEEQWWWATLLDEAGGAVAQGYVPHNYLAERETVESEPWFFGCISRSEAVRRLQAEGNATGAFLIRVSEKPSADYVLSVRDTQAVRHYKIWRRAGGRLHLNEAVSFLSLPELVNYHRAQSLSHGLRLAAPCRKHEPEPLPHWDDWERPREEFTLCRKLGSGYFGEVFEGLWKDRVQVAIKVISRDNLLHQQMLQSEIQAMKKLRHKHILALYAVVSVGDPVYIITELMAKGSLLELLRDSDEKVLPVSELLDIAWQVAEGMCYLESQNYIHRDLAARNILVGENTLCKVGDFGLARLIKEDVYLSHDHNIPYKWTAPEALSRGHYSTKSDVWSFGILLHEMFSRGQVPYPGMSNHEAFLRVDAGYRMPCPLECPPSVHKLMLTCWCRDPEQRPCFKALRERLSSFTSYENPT
The target in assay [7] is T3, Serine/threonine-protein kinase D3 (Homo sapiens) (UniProt O94806).
T3 sequence (whole entry): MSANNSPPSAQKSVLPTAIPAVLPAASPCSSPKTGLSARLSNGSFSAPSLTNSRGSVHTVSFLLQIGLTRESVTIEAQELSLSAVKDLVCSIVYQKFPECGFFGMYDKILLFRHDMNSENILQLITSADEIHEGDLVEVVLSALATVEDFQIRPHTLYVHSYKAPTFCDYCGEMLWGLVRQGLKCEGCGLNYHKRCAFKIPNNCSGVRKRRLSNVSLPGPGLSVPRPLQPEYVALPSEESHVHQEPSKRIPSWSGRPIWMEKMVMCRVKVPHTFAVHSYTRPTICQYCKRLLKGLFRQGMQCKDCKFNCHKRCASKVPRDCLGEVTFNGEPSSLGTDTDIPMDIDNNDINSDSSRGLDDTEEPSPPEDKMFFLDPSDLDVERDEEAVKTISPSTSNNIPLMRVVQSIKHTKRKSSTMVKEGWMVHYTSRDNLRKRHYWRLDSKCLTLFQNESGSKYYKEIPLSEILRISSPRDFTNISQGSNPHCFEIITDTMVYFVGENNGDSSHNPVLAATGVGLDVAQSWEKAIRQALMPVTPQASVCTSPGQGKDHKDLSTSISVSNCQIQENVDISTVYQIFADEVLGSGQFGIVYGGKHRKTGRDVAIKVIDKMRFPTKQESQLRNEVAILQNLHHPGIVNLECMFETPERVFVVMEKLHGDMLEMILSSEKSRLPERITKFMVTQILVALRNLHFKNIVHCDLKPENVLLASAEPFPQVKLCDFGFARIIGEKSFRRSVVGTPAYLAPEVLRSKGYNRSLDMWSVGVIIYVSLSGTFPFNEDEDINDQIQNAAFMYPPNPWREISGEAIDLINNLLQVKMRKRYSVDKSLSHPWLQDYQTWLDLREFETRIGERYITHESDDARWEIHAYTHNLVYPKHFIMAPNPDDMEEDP
Briefly: Inhibition of human PRKD3 at 1.82 nM by HotSpot assay relative to control.

For assay [8], the target named is G protein-coupled receptor kinase 6 (Homo sapiens) (UniProt P43250). As to the kind of experiment: Inhibition of human GRK6 at 1.82 nM by HotSpot assay relative to control.
G protein-coupled receptor kinase 6 (Homo sapiens), sequence (P43250 whole entry, looked up): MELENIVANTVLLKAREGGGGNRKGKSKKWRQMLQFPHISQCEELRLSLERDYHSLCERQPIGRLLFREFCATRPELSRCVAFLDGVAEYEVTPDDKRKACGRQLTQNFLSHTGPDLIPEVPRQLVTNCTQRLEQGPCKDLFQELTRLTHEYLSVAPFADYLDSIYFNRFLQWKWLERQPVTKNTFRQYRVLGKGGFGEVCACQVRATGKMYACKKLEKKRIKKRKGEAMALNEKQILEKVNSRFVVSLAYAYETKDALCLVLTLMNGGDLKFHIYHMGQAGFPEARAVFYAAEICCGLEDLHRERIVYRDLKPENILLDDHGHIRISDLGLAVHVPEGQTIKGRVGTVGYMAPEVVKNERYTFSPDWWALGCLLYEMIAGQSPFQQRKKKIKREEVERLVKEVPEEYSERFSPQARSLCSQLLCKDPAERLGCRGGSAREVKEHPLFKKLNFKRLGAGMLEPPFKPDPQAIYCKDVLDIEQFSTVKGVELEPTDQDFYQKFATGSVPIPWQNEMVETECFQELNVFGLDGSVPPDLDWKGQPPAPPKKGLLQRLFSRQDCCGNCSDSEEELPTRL
In assay [9] the target is Dual specificity mitogen-activated protein kinase kinase 1 (Homo sapiens) (UniProt Q02750). Briefly: Inhibition of human MEK1 at 1.82 nM by HotSpot assay relative to control.
Dual specificity mitogen-activated protein kinase kinase 1 (Homo sapiens), sequence (Q02750 whole entry): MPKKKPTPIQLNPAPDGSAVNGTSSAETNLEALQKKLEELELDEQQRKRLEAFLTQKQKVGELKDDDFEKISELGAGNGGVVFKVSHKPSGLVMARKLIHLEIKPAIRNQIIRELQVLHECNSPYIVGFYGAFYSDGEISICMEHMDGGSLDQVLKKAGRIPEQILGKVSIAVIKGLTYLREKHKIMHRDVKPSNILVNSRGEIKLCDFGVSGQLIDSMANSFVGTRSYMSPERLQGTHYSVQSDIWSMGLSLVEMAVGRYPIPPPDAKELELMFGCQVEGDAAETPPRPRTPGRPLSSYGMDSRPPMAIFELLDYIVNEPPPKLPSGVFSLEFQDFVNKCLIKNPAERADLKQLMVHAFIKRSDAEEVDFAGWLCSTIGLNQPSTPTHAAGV
The target in assay [10] is Cyclin-dependent kinase 7/ cyclin H (Homo sapiens) (UniProt P51946+P50613). Briefly: Inhibition of human CDK7/cyclin H at 1.82 nM by HotSpot assay relative to control. The format is protein-complex assay.

Protein-tyrosine kinase 2-beta (Homo sapiens), sequence (Q14289 whole entry, looked up): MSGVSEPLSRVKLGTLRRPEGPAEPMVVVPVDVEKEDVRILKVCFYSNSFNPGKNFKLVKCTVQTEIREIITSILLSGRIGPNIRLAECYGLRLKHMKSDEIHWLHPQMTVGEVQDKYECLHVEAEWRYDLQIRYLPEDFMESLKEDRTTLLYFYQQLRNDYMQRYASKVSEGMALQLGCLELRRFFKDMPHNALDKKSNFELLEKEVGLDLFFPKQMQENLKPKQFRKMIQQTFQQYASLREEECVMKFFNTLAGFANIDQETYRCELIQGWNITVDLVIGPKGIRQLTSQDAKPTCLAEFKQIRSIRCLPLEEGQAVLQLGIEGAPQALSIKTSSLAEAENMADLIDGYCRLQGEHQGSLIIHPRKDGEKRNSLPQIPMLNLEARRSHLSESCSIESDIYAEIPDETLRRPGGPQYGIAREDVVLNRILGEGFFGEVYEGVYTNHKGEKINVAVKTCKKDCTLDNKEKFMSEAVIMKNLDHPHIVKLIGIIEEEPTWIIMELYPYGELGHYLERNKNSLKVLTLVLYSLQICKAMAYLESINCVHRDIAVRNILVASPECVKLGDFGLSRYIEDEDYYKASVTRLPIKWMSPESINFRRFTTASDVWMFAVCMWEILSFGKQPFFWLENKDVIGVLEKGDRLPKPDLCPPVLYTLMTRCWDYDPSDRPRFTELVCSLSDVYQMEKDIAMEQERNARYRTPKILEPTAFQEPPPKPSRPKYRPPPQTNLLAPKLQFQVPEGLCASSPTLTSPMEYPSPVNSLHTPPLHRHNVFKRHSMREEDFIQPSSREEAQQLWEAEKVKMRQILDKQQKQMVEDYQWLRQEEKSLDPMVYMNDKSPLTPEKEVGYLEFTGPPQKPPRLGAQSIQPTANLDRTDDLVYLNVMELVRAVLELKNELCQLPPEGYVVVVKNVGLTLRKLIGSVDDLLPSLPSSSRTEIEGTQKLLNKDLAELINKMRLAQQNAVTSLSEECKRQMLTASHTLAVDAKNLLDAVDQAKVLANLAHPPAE

Consider `Oc1n[nH]c2nnc(-c3c(-c4ccccc4)nn4ccccc34)cc12`, for which the inhibition in [1] is -0.37%.

Consider `C[C@]1(O)C[C@@H](c2nc(-c3ccc4ccc(-c5ccccc5)nc4c3)c3c(N)nccn32)C1`, for which the inhibition in [2] was -3.5%; in assay [3], -4.64%; in [4], -2.9%; in assay [5], 1.29%.

Turning to `C[C@@]1(C(=O)Nc2ccc(F)nc2)CCCN1c1nc(Nc2cc(C3CC3)n[nH]2)c2cccn2n1`, the inhibition was 0.2% in assay [6]; 2.81% in assay [7]; 2.92% in assay [8]; -6.3% in assay [9]; -3.28% in [10].

These data come from ChEMBL document CHEMBL5653615 (J Biol Chem, 2013).
